Results from PubChem BioAssay (NCI).
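Growth conditions: 96-well plates. Treatment: test compound, 48 hours, 5 concentrations. Analysis: linear interpolation between bracketing concentrations; unreached endpoints set to highest concentration. Definition used: TGI = concentration required for complete inhibition of growth.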

Columns and labels:
Test in all cases: NCI tumour cell line growth inhibition, 48 h
[1] = system: A498 renal
[2] = system: A549 NSCLC
[3] = system: CCRF-CEM leukemia
[4] = system: COLO 205 colon
[5] = system: DLD-1 colon
[6] = system: DMS 273 small cell lung
[7] = system: EKVX NSCLC
[8] = system: HCC-2998 colon
[9] = system: HCT-116 colon
[10] = system: HCT-15 colon
[11] = system: HL-60(TB) leukemia
[12] = system: HOP-18 NSCLC
[13] = system: HOP-62 NSCLC
[14] = system: HOP-92 NSCLC
[15] = system: HT29 colon
[16] = system: IGROV1 ovarian
[17] = system: K-562 leukemia
[18] = system: KM12 colon
[19] = system: KM20L2 colon
[20] = system: LOX IMVI melanoma
[21] = system: M19-MEL melanoma
[22] = system: MALME-3M melanoma
[23] = system: MCF7 breast
[24] = system: MOLT-4 leukemia
[25] = system: NCI-H226 lung
[26] = system: NCI-H23 lung
[27] = system: NCI-H460 lung
[28] = system: NCI-H522 lung
[29] = system: NCI/ADR-RES ovarian
[30] = system: OVCAR-3 ovarian
[31] = system: OVCAR-4 ovarian
[32] = system: OVCAR-5 ovarian
[33] = system: OVCAR-8 ovarian
[34] = system: P388 leukemia
[35] = system: P388/ADR leukemia
[36] = system: RPMI-8226 leukemia
[37] = system: RXF 393 renal
[38] = system: SF-268 CNS
[39] = system: SF-295 CNS
[40] = system: SF-539 CNS
[41] = system: SK-MEL-2 melanoma
[42] = system: SK-MEL-28 melanoma
[43] = system: SK-MEL-5 melanoma
[44] = system: SK-OV-3 ovarian
[45] = system: SN12C renal
[46] = system: SN12K1 renal
[47] = system: SNB-19 CNS
[48] = system: SNB-75 CNS
[49] = system: SNB-78 CNS
[50] = system: SW-620 colon
[51] = system: U251 CNS
[52] = system: UACC-257 melanoma
[53] = system: UACC-62 melanoma
[54] = system: UO-31 renal
[55] = system: XF 498 CNS
[56] = system: CAKI-1 renal
[57] = system: DMS 114 small cell lung

SMILES: C#CC[C@@]12CC(=O)C[C@@H]1CCC1(C2)OCCO1 (tested in a mixture with another compound)
- TGI [1]: > 100 µM
- TGI [2]: > 100 µM
- TGI [3]: > 100 µM
- TGI [4]: > 100 µM
- TGI [5]: > 100 µM
- TGI [6]: > 100 µM
- TGI [7]: > 100 µM
- TGI [8]: > 100 µM
- TGI [9]: > 100 µM
- TGI [10]: > 100 µM
- TGI [11]: > 100 µM
- TGI [12]: > 100 µM
- TGI [13]: > 100 µM
- TGI [14]: > 100 µM
- TGI [15]: > 100 µM
- TGI [16]: > 100 µM
- TGI [17]: > 100 µM
- TGI [18]: > 100 µM
- TGI [19]: > 100 µM
- TGI [20]: > 100 µM
- TGI [21]: > 100 µM
- TGI [22]: > 100 µM
- TGI [23]: > 100 µM
- TGI [24]: > 100 µM
- TGI [25]: > 100 µM
- TGI [26]: > 100 µM
- TGI [27]: > 100 µM
- TGI [28]: > 100 µM
- TGI [29]: > 100 µM
- TGI [30]: > 100 µM
- TGI [31]: > 100 µM
- TGI [32]: > 100 µM
- TGI [33]: > 100 µM
- TGI [34]: > 59.7 µM
- TGI [35]: > 75 µM
- TGI [36]: > 100 µM
- TGI [37]: > 100 µM
- TGI [38]: > 100 µM
- TGI [39]: > 100 µM
- TGI [40]: > 100 µM
- TGI [41]: > 100 µM
- TGI [42]: > 100 µM
- TGI [43]: > 100 µM
- TGI [44]: > 100 µM
- TGI [45]: > 100 µM
- TGI [46]: > 100 µM
- TGI [47]: > 100 µM
- TGI [48]: > 100 µM
- TGI [49]: > 100 µM
- TGI [50]: > 100 µM
- TGI [51]: > 100 µM
- TGI [52]: > 100 µM
- TGI [53]: > 100 µM
- TGI [54]: > 100 µM
- TGI [55]: > 100 µM

SMILES: O=C(CCN1CCOCC1)/C(=C/c1ccccc1)c1ccccc1
- TGI [1]: 23.3 µM
- TGI [2]: 36.6 µM
- TGI [56]: 16.9 µM
- TGI [4]: 14.3 µM
- TGI [5]: 4.04 µM
- TGI [57]: 12 µM
- TGI [6]: 21.4 µM
- TGI [7]: 23.9 µM
- TGI [8]: 28.3 µM
- TGI [9]: 12.3 µM
- TGI [10]: 5.98 µM
- TGI [11]: 4.19 µM
- TGI [12]: 30.6 µM
- TGI [13]: 45.8 µM
- TGI [14]: 13 µM
- TGI [15]: 17.6 µM
- TGI [16]: 22.8 µM
- TGI [17]: 4.24 µM
- TGI [18]: 16.5 µM
- TGI [19]: 15.1 µM
- TGI [20]: 7.42 µM
- TGI [21]: 14.1 µM
- TGI [22]: 8.74 µM
- TGI [23]: 18.8 µM
- TGI [24]: 5.81 µM
- TGI [25]: 21.3 µM
- TGI [26]: 14.1 µM
- TGI [27]: 23.1 µM
- TGI [28]: 3.84 µM
- TGI [29]: 17.5 µM
- TGI [30]: 13.5 µM
- TGI [31]: 23.8 µM
- TGI [32]: 30.4 µM
- TGI [33]: 4.1 µM
- TGI [34]: 12.4 µM
- TGI [35]: 3.99 µM
- TGI [36]: 8.05 µM
- TGI [37]: 3.4 µM
- TGI [38]: 19 µM
- TGI [39]: 25.7 µM
- TGI [40]: 9.31 µM
- TGI [41]: 21.5 µM
- TGI [42]: 20.3 µM
- TGI [43]: 21.5 µM
- TGI [44]: 43.3 µM
- TGI [45]: 14.5 µM
- TGI [46]: 10.9 µM
- TGI [47]: 23.4 µM
- TGI [48]: 21.8 µM
- TGI [49]: 21.3 µM
- TGI [50]: 6.9 µM
- TGI [51]: 12.9 µM
- TGI [52]: 9.72 µM
- TGI [53]: 7.52 µM
- TGI [54]: 28.1 µM
- TGI [55]: 19.1 µM
